Two compounds from patent US11707449B2, “Methods and formulations for treatment of spinobulbar muscular atrophy” (ST. JUDE CHILDREN'S RESEARCH HOSPITAL, INC., priority 2017, dated 2023) can be followed below.

Data set [1] in a line: Pharmacokinetics of MEPB and TA in plasma and tissues after a single intraperitoneal injection. Format: in vivo, male FVB/NJ mice. Particulars: for bioavailability in muscle, brain, and spinal cord / bioavailability in SBMA-affected tissues: mice. As to the method: MEPB and TA concentrations in plasma, liver, muscle, testes, brain, and spinal cord of male FVB/NJ mice were measured at multiple time points (5 min to 48 h) after a single intraperitoneal injection of either 100 mg/kg body weight MEPB or 50 mg/kg body weight TA. MEPB or TA and the internal standard (IS) SLV320 (Tocris Biosciences) were extracted from plasma and tissue homogenate samples with methyl tert-butyl ether. A 25-μL aliquot of sample was mixed with 10 μL IS (100 ng/mL). To this, 600 μL methyl tert-butyl ether was added and vortexed for 5 min. After centrifugation at 10,000 rpm for 5 min, the organic layer was then transferred to a glass vial and dried in a CentriVap Console (Labconco) at 35° C. for 25 min. The dried extracts were then reconstituted with 400 μL methanol, and an aliquot of 3 μL was injected onto the chromatographic system. All chemicals were HPLC grade or higher and were obtained from Fisher Scientific (Fair Lawn) unless otherwise specified. Quantitation of MEPB and TA was performed using an API 4000 mass spectrometer (AB SCIEX) equipped with a Prominence Ultra-Fast Liquid Chromatograph (UFLCXR) system (Shimadzu). […] Mass spectrometric analysis was performed with the turbo ion spray in positive ionization mode. All MS data were acquired using Analyst 1.5.2 software and processed using MultiQuant 2.1.1 software (SCIEX).
For all matrices (plasma, liver, muscle, testes, brain, and spinal cord), the lower limit of quantification (LLOQ) of MEPB was 2.5 ng/mL with a calibration range of 2.5 ng/mL to 100 ng/mL. However, due to dilution during homogenization, the effective LLOQ was 15 ng/mL for solid tissues. The LLOQ of TA was 5 ng/mL for plasma and 60 ng/mL for tissues. […] The MEPB concentration-time (Ct) data for liver, muscle, testes, brain, and spinal cord were grouped by mouse and analyzed using a two-stage, semiphysiologic, nonlinear mixed effects approach with maximum likelihood expectation maximization in ADAPT 5. The pooled arithmetic mean Ct data were subjected to noncompartmental analysis by tissue using WinNonlin 6.4 (Pharsight, a Cetara Company). All PK parameters were calculated using standard formulae^43. Parameters estimated for all matrices included observed maximum concentration (Cmax), time of Cmax (Tmax), concentration at the last observed time point (Clast), time of Clast (Tlast), and area under the Ct curve (AUC). When applicable, the terminal phase was defined as the three time points at the end of the Ct profile, excluding Cmax, and the elimination rate constant (Kel) was estimated using an unweighted log-linear regression of the terminal phase. The terminal elimination half-life (T½) was estimated as 0.693/Kel, and the AUC from time 0 to infinity ([…]) was estimated as the AUC to the last time point (AUClast)+Clast/Ke. Apparent clearance (CL/F=Dose/AUCinf), and apparent terminal volume of distribution (Vz/F) were also calculated.

Another data set has as its system AR121Q mice. The data set can be described thus: Pilot preclinical trial in AR121Q (SBMA) mice. It is filed as in vivo, mouse. Particulars: male SBMA mice; 50 mg/kg intraperitoneally three times per week, 3 to 8 weeks of age. The procedure:
To determine the efficacy of TA and/or MEPB in a mouse model of SBMA, we first performed a pilot study. Five mice were assigned to each drug treatment group: 50 mg/kg TA, 50 mg/kg MEPB, or vehicle (1% DMSO in corn oil). Drug identities were coded to ensure investigator blinding, and drugs were administered three times per week (Monday, Wednesday, and Friday) by intraperitoneal injection from 3 to 8 weeks of age. At 8 weeks, all mice were sacrificed and tissues were collected for pathologic analysis. To fully characterize the efficacy of MEPB in SBMA mice, a large-scale, multi-dose preclinical trial was performed. A power analysis (Table 1) was performed based on the pilot study data to determine the adequate number of mice required for 80% power. At least 10 mice were assigned to each drug treatment group: 50 mg/kg MEPB, 100 mg/kg MEPB, and vehicle (1% DMSO in corn oil). Drug identities were coded to ensure investigator blinding, and drugs were administered three times per week (Monday, Wednesday, and Friday) by intraperitoneal injections from 4 weeks until 30 weeks of age.
Body weight, rotarod activity, and grip strength data were collected weekly. Footprint analysis and clasping phenotype were assessed at 7 and 8 weeks of age. Body weight was measured using a standard laboratory scale (Fisher Scientific). Rotarod activity analysis was performed on an accelerating rotarod apparatus (IITC Life Science) using a two-day, weekly protocol. Mice were trained on the first day with one session set at 4 rpm for 5 min. The following day, mice were placed on the apparatus, rotation speed was set to accelerate from 4-40 rpm at a rate of 0.1 rpm/s, and the latency to fall was recorded for four separate trials per mouse. Mice were given a 15-min rest period between each trial. Grip strength was measured using a grip strength meter (Bioseb). Grip strength was measured as grams of force in six repeated measurements for forepaws and hindpaws of each animal. To perform gait/footprint analysis, the forepaws and hindpaws of each animal were dipped in red and blue, respectively, water-soluble, non-toxic paint. The animal was then placed in a 70-cm long tunnel lined on the bottom with Whatman filter paper, the entrance was sealed, and the animal was allowed to walk through one time. Footprints were scanned and analyzed with Image J for stride length and forepaw/hindpaw overlap^41. To determine clasping phenotype, mice were recorded using an Apple iPod camera (iOS version 6.1.6) for approximately 60 seconds and still frames were extracted using ImageJ.
A separate cohort of five mice per treatment group was generated for pathologic and biochemical analysis. Mice were anesthetized by isoflurane inhalation and transcardially perfused with either PBS for frozen tissue samples or 10% formalin for fixed tissue samples. Selected tissues (brain, spinal cord, gastrocnemius/soleus muscle, testes, and liver) were dissected and either snap-frozen in liquid nitrogen or processed for paraffin embedding/sectioning. Tissue sections were stained with hematoxylin and eosin, toluidine blue, or Gomori trichrome to ascertain overall morphology and pathologic changes. To determine AR staining and colocalization patterns, tissue sections were stained with anti-AR (N20, Santa Cruz), anti-polyQ (5TF1-1C2, EMD Millipore), or anti-ubiquitin (Cell Signaling Technology) antibodies. To quantify type I and type II myofibers, hindlimb tissue sections were stained with myosin heavy chain-slow twitch and myosin heavy chain-fast twitch antibodies (Leica Biosystems), respectively. For the purposes of counting ChAT-positive neurons, three stepped sections separated by 50 μm were analyzed for the cervical, thoracic, and lumbosacral areas of spinal cords. The slides contained three to six tissue sections at each level and were labeled with an anti-ChAT antibody (EMD Millipore). […]

[2] abbreviates: single intraperitoneal injection of 100 mg/kg MEPB or 50 mg/kg TA.

Structures are written as SMILES. Where “and” joins values, the source holds several entries; their conditions need not be identical. Equal entries are not always repeated. Where two headings read alike, the source gives them in different places.

With `Cc1c(Cl)cccc1Nc1ccccc1C(=O)O` [TA, tolfenamic acid], the “Tlast (time of Clast)” value was found to be 4 h in data set [1] (TA in brain, single intraperitoneal injection of 50 mg/kg TA); 24 h in data set [1] (TA in liver, single intraperitoneal injection of 50 mg/kg TA); 8 h in data set [1] (TA in muscle, single intraperitoneal injection of 50 mg/kg TA); 48 h in data set [1] (TA in plasma, single intraperitoneal injection of 50 mg/kg TA); 4 h in data set [1] (TA in spinal cord, single intraperitoneal injection of 50 mg/kg TA); 8 h in data set [1] (TA in testis, single intraperitoneal injection of 50 mg/kg TA). Moreover, the Cmax in data set [1] (male, FVB/NJ, mouse, ip, TA conc. in brain, single intraperitoneal injection of 50 mg/kg TA) was 700 nM and 194 ng/mL; in data set [1] (male, FVB/NJ, mouse, ip, TA conc. in liver, single intraperitoneal injection of 50 mg/kg TA), 260 µM and 67600 ng/mL; in data set [1] (male, FVB/NJ, mouse, ip, TA conc. in muscle, single intraperitoneal injection of 50 mg/kg TA) it was 4.8 µM and 1250 ng/mL; in data set [1] (male, FVB/NJ, mouse, ip, TA conc. in plasma, single intraperitoneal injection of 50 mg/kg TA) it was 223 µM and 13400 ng/mL; in data set [1] (male, FVB/NJ, mouse, ip, TA conc. in spinal cord, single intraperitoneal injection of 50 mg/kg TA), 2.1 µM and 554 ng/mL; in data set [1] (male, FVB/NJ, mouse, ip, TA conc. in testis, single intraperitoneal injection of 50 mg/kg TA), 11.6 µM and 3030 ng/mL. Further, the time of peak concentration (Tmax) in data set [1] (male, FVB/NJ, mouse, ip, TA in brain, single intraperitoneal injection of 50 mg/kg TA) was 1 h; in data set [1] (male, FVB/NJ, mouse, ip, TA in liver, single intraperitoneal injection of 50 mg/kg TA), 1 h; in data set [1] (male, FVB/NJ, mouse, ip, TA in muscle, single intraperitoneal injection of 50 mg/kg TA), 1 h; in data set [1] (male, FVB/NJ, mouse, ip, TA in plasma, single intraperitoneal injection of 50 mg/kg TA), 1 h; in data set [1] (male, FVB/NJ, mouse, ip, TA in spinal cord, single intraperitoneal injection of 50 mg/kg TA), 1 h; in data set [1] (male, FVB/NJ, mouse, ip, TA in testis, single intraperitoneal injection of 50 mg/kg TA), 1 h. The concentration at 4 hr in data set [1] (male, FVB/NJ, mouse, ip, TA in brain, single intraperitoneal injection of 50 mg/kg TA, read-out: Clast (concentration at the last observed time point)) came to 66.7 ng/mL; in data set [1] (male, FVB/NJ, mouse, ip, TA in spinal cord, single intraperitoneal injection of 50 mg/kg TA, read-out: Clast (concentration at the last observed time point)) it was 84.6 ng/mL. Also, in data set [1] (male, FVB/NJ, mouse, ip, TA in liver, single intraperitoneal injection of 50 mg/kg TA, read-out: Clast (concentration at the last observed time point)), the concentration at 24 hr came to 508 ng/mL. Also, the concentration at 8 hr was determined as 119 ng/mL in data set [1] (male, FVB/NJ, mouse, ip, TA in muscle, single intraperitoneal injection of 50 mg/kg TA, read-out: Clast (concentration at the last observed time point)) and 150 ng/mL in data set [1] (male, FVB/NJ, mouse, ip, TA in testis, single intraperitoneal injection of 50 mg/kg TA, read-out: Clast (concentration at the last observed time point)). Further, the concentration at 48 hr in data set [1] (male, FVB/NJ, mouse, ip, TA in plasma, single intraperitoneal injection of 50 mg/kg TA, read-out: Clast (concentration at the last observed time point)) came to 19.8 ng/mL. In addition, the “bioavailability in muscle, brain, and spinal cord” value in data set [1] is “poor bioavailability”. In addition, in data set [1] (setting [2]), the “bioavailability in SBMA-affected tissues” value is “poor bioavailability”. In addition, the “any measurements of SBMA-associated degeneration” value with AR121Q mice is listed as “did not significantly alter any measurements of SBMA-associated degeneration”.

Take `Cc1ccc(OCCn2c(SCCOc3ccccc3)nc3ccccc32)cc1` [MEPB, 1-[2-(4-methylphenoxy)ethyl]-2-[(2-phenoxyethyl)sulfanyl]-1H-benzimidazole]: in data set [1] (NTG mice, single intraperitoneal injection of 100 mg/kg MEPB or 50 mg/kg TA), the “penetration and duration in muscle, spinal cord, and testes” value is “marked penetration and duration”. For the same compound, the “bioavailability in muscle, brain, and spinal cord” value in data set [1] was “good bioavailability”. Further, in data set [1] (setting [2]), the “bioavailability in SBMA-affected tissues” value is “sufficient bioavailability”. Further, in the data set with AR121Q mice, the body weight result is reported as “significantly improved”; the “gait and hindlimb clasping” value was “improved gait and hindlimb clasping”; the grip strength entry is “significantly improved”; the “pathologic appearance of skeletal muscle and spinal cord degeneration” value is “qualitatively recovered”. Also, in the data set on AR121Q mice, the rotarod activity result is given as “significantly improved” and the survival entry is listed as “no significant change in survival”.

As a reminder, the Cmax is the peak of the concentration-time curve. By Tmax is commonly meant the time at which the peak concentration occurs.
